Test results: ChEMBL document CHEMBL1201862, “PubChem BioAssay data set” (2004)
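Dose response: 5 concentrations. Exposure: 48 h. Format: 96-well plates. Endpoint: linear interpolation; highest concentration if not reached. GI50: concentration for 50% inhibition of growth.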 Activity calls are given as the source filed them. No stated cut-off is given here; in the data, active = GI50 up to about 1.1 µM and inactive = higher.

Legend:
Assay in all cases: inhibition of tumour cell growth, NCI panel, 48 h
ACHN = system: ACHN
CAKI-1 = system: CAKI-1
HCC 2998 = system: HCC 2998
HOP-62 = system: HOP-62
M14 = system: M14
MDA-N = system: MDA-N
NCI/ADR-RES = system: NCI/ADR-RES
OVCAR-3 = system: OVCAR-3
OVCAR-4 = system: OVCAR-4
PC-3 = system: PC-3
RPMI-8226 = system: RPMI-8226
SF-268 = system: SF-268
SF-539 = system: SF-539
SK-MEL-28 = system: SK-MEL-28
SK-OV-3 = system: SK-OV-3
SNB-19 = system: SNB-19
SR = system: SR
UO-31 = system: UO-31
MCF7 = system: MCF7

Measured: GI50

CCOC(=O)C(C)(Cc1ccc(O)cn1)NC(=O)c1ccccc1 (centres undefined)
inactive: ACHN > 100 µM | CAKI-1 > 100 µM | HCC 2998 > 100 µM | HOP-62 > 100 µM | M14 > 100 µM | MDA-N > 100 µM | NCI/ADR-RES > 100 µM | OVCAR-3 > 100 µM | OVCAR-4 > 100 µM | PC-3 > 100 µM | RPMI-8226 > 100 µM | SF-268 > 100 µM | SF-539 > 100 µM | SK-MEL-28 > 100 µM | SK-OV-3 > 100 µM | SNB-19 > 100 µM | SR > 100 µM | UO-31 > 100 µM

CC(=O)N/C(=C\c1ccc(Cc2nc3c([nH]2)C(=O)c2ccccc2C3=O)cc1)c1nc2c([nH]1)C(=O)c1ccccc1C2=O
inactive: ACHN > 100 µM | CAKI-1 > 100 µM | HCC 2998 > 100 µM | HOP-62 > 100 µM | M14 > 100 µM | OVCAR-3 > 100 µM | OVCAR-4 > 100 µM | RPMI-8226 > 100 µM | SF-268 > 100 µM | SF-539 > 100 µM | SK-MEL-28 > 100 µM | SK-OV-3 > 100 µM | SNB-19 > 100 µM | UO-31 > 100 µM

Oc1c2cc(Cl)cc1COCc1cc(Cl)cc(c1O)COCc1cc(Cl)cc(c1O)COC2
inactive: ACHN > 100 µM | HCC 2998 > 100 µM | HOP-62 19.7 µM | M14 18.7 µM | MCF7 74.3 µM | NCI/ADR-RES 38.8 µM | OVCAR-3 47.2 µM | OVCAR-4 23 µM | PC-3 > 100 µM | RPMI-8226 > 100 µM | SK-MEL-28 > 100 µM | SK-OV-3 59.6 µM | SNB-19 28 µM | SR > 100 µM | UO-31 32.6 µM

Cc1cc(S(=O)(=O)/N=C2\NCCN2Cc2ccccc2)c(S)cc1Cl
inactive: ACHN > 100 µM | CAKI-1 > 100 µM | HCC 2998 > 100 µM | HOP-62 76.2 µM | M14 > 100 µM | MCF7 > 100 µM | MDA-N > 100 µM | NCI/ADR-RES > 100 µM | OVCAR-3 > 100 µM | OVCAR-4 > 100 µM | PC-3 > 100 µM | RPMI-8226 10.5 µM | SF-268 88.3 µM | SF-539 > 100 µM | SK-MEL-28 > 100 µM | SK-OV-3 > 100 µM | SNB-19 > 100 µM

O=C(/C=C\c1ccccc1)N1CCc2ccccc2C1
inactive: ACHN 38.2 µM | CAKI-1 67.1 µM | HCC 2998 > 100 µM | HOP-62 > 100 µM | M14 60.5 µM | MCF7 49.7 µM | NCI/ADR-RES 44 µM | OVCAR-4 93.1 µM | PC-3 34.4 µM | RPMI-8226 23.5 µM | SF-268 49.7 µM | SF-539 49.8 µM | SK-MEL-28 61 µM | SK-OV-3 > 100 µM | SNB-19 67.8 µM | SR 24.1 µM | UO-31 39 µM

CN(C)C1(N(C)C)Oc2c(c(=O)n(C)c(=O)n2C)C(c2ccccc2)C1(F)F (centres undefined)
inactive: ACHN > 100 µM | CAKI-1 > 100 µM | HCC 2998 > 100 µM | HOP-62 > 100 µM | M14 > 100 µM | MCF7 > 100 µM | NCI/ADR-RES > 100 µM | OVCAR-3 > 100 µM | OVCAR-4 > 100 µM | PC-3 > 100 µM | RPMI-8226 > 100 µM | SF-268 > 100 µM | SK-MEL-28 > 100 µM | SK-OV-3 > 100 µM | SNB-19 > 100 µM | UO-31 > 100 µM

CC(C)(C)C(=O)Cc1cc2c(cc1C(=O)O)S(=O)(=O)NC(C(C)(C)C)=C2
inactive: ACHN > 100 µM | CAKI-1 > 100 µM | HOP-62 > 100 µM | M14 > 100 µM | OVCAR-3 > 100 µM | OVCAR-4 > 100 µM | RPMI-8226 > 100 µM | SF-268 > 100 µM | SK-MEL-28 > 100 µM | SK-OV-3 > 100 µM | SNB-19 > 100 µM | SR > 100 µM | UO-31 > 100 µM

COc1ccc(Cc2nccc3cc(OC)c(OC)cc23)cc1
inactive: ACHN 43.3 µM | CAKI-1 33 µM | HCC 2998 > 100 µM | HOP-62 > 100 µM | M14 > 100 µM | OVCAR-3 50.4 µM | OVCAR-4 36.5 µM | RPMI-8226 20.9 µM | SF-268 65.5 µM | SF-539 > 100 µM | SK-MEL-28 > 100 µM | SK-OV-3 > 100 µM | SNB-19 54.6 µM | UO-31 16.9 µM

[N-]=[N+]=Nc1c(Cc2ccccc2)c(=O)oc2ccccc12
inactive: ACHN 38.2 µM | CAKI-1 23.8 µM | HCC 2998 26 µM | HOP-62 20.7 µM | M14 25.5 µM | MCF7 32.6 µM | NCI/ADR-RES 27.6 µM | OVCAR-3 49.5 µM | OVCAR-4 32.4 µM | PC-3 22.9 µM | RPMI-8226 33.2 µM | SF-268 25.9 µM | SF-539 > 10 µM | SK-MEL-28 > 10 µM | SK-OV-3 32.1 µM | SNB-19 27.2 µM | SR 33.4 µM | UO-31 36.1 µM

COCc1nc(N)nc(N2N=C(C)CC2(C)C)n1
inactive: ACHN > 100 µM | CAKI-1 > 100 µM | HCC 2998 > 100 µM | HOP-62 > 100 µM | M14 > 100 µM | MCF7 > 100 µM | NCI/ADR-RES > 100 µM | OVCAR-3 > 100 µM | OVCAR-4 > 100 µM | PC-3 > 100 µM | RPMI-8226 > 100 µM | SF-268 > 100 µM | SF-539 > 100 µM | SK-MEL-28 > 100 µM | SK-OV-3 > 100 µM | SNB-19 > 100 µM | SR > 100 µM | UO-31 > 100 µM

CC(CCC(=O)O)(c1ccc(O)cc1)c1ccc(O)cc1
inactive: ACHN > 100 µM | CAKI-1 > 100 µM | HOP-62 > 100 µM | M14 > 100 µM | MDA-N > 100 µM | NCI/ADR-RES > 100 µM | OVCAR-3 > 100 µM | OVCAR-4 > 100 µM | PC-3 > 100 µM | SF-268 > 100 µM | SK-MEL-28 > 100 µM | SNB-19 > 100 µM | SR > 100 µM | UO-31 > 100 µM

Cc1cccc2c(O)cc(=O)oc12
inactive: ACHN > 100 µM | HOP-62 > 100 µM | M14 > 100 µM | OVCAR-3 > 100 µM | OVCAR-4 > 100 µM | RPMI-8226 > 100 µM | SF-268 > 100 µM | SF-539 > 100 µM | SK-MEL-28 > 100 µM | SK-OV-3 > 100 µM | SNB-19 > 100 µM | SR > 100 µM | UO-31 > 100 µM

COc1cc(/C=N/n2c(C)n[nH]c2=O)cc(OC)c1OC
inactive: ACHN > 100 µM | CAKI-1 > 100 µM | HCC 2998 > 100 µM | HOP-62 > 100 µM | M14 > 100 µM | MCF7 > 100 µM | MDA-N > 100 µM | NCI/ADR-RES > 100 µM | OVCAR-3 51.4 µM | OVCAR-4 > 100 µM | PC-3 > 100 µM | SF-268 > 100 µM | SF-539 > 100 µM | SK-MEL-28 > 100 µM | SK-OV-3 > 100 µM | SNB-19 > 100 µM | UO-31 84.3 µM
